US20240423981A1, “TREATMENT OF HCM WITH PYRIMIDINEDIONE COMPOUNDS” (MyoKardia, Inc., priority 2017, published 2024)

Tests used:
[1] = system: subjects with symptomatic HCM and LVOT obstruction; test: Phase 2 open-label pilot study Pioneer-HCM-B (Cohort B); type: in vivo, human
Procedure: This trial was similar to the trial described in Example 3, but will have several important differences. For example, subjects in the Phase 2-B trial will not be required to discontinue their β-blocker therapy, and the dose of Compound 1 will be reduced to 2 to 5 mg.
The following results were obtained generally following the procedures described in Example 3 and Example 5.

smooth muscle myosin = smooth muscle myosin (Homo sapiens, UniProt P35749); test: Biochemical activity against smooth muscle myosin
[2] = Pre-clinical acute or chronic administration, haemodynamics; type: in vivo
[3] = Pharmacokinetics in Study Compound 1-002; type: in vivo; conditions: single oral doses, healthy men
Procedure: In Study Compound 1-002, single doses from 1 mg to 48 mg were administered as an oral suspension to healthy men. […] Single doses of ≥12 mg of Compound 1 were associated with detectable reductions in LV contractility from baseline as assessed by 3 independent echocardiographic measures (left ventricular ejection fraction [LVEF], LV fractional shortening (LVFS), and LVOT velocity time integral [VTI]). At the highest dose studied in healthy subjects (48 mg), mean reduction in LVEF at any time point was −6% relative to baseline.
Compound 1 concentrations were measured in human plasma using high pressure liquid chromatography (HPLC) coupled with tandem mass spectrometry (MS/MS). This method was used for Compound 1 bioanalysis in all clinical trials to date, and all clinical data has been collected using plasma. A brief description of the method follows.
Liquid-liquid extraction and HPLC/MS/MS was used to determine the concentration of Compound 1 in human plasma. An aliquot of the extract was injected onto an HPLC instrument that is coupled with a triple quadrupole mass spectrometer (Sciex API5500). […] The peak area of the product ion of Compound 1 was measured against the peak area of the product ion of the internal standard for determination of concentration.

[4] = 2 mg/day for 4 weeks, preliminary
[5] = Cohort B (2-5 mg daily doses), mean ± SD
[6] = Cohort B, baseline to Week 12, n 10

Sequence of smooth muscle myosin (P35749 whole entry): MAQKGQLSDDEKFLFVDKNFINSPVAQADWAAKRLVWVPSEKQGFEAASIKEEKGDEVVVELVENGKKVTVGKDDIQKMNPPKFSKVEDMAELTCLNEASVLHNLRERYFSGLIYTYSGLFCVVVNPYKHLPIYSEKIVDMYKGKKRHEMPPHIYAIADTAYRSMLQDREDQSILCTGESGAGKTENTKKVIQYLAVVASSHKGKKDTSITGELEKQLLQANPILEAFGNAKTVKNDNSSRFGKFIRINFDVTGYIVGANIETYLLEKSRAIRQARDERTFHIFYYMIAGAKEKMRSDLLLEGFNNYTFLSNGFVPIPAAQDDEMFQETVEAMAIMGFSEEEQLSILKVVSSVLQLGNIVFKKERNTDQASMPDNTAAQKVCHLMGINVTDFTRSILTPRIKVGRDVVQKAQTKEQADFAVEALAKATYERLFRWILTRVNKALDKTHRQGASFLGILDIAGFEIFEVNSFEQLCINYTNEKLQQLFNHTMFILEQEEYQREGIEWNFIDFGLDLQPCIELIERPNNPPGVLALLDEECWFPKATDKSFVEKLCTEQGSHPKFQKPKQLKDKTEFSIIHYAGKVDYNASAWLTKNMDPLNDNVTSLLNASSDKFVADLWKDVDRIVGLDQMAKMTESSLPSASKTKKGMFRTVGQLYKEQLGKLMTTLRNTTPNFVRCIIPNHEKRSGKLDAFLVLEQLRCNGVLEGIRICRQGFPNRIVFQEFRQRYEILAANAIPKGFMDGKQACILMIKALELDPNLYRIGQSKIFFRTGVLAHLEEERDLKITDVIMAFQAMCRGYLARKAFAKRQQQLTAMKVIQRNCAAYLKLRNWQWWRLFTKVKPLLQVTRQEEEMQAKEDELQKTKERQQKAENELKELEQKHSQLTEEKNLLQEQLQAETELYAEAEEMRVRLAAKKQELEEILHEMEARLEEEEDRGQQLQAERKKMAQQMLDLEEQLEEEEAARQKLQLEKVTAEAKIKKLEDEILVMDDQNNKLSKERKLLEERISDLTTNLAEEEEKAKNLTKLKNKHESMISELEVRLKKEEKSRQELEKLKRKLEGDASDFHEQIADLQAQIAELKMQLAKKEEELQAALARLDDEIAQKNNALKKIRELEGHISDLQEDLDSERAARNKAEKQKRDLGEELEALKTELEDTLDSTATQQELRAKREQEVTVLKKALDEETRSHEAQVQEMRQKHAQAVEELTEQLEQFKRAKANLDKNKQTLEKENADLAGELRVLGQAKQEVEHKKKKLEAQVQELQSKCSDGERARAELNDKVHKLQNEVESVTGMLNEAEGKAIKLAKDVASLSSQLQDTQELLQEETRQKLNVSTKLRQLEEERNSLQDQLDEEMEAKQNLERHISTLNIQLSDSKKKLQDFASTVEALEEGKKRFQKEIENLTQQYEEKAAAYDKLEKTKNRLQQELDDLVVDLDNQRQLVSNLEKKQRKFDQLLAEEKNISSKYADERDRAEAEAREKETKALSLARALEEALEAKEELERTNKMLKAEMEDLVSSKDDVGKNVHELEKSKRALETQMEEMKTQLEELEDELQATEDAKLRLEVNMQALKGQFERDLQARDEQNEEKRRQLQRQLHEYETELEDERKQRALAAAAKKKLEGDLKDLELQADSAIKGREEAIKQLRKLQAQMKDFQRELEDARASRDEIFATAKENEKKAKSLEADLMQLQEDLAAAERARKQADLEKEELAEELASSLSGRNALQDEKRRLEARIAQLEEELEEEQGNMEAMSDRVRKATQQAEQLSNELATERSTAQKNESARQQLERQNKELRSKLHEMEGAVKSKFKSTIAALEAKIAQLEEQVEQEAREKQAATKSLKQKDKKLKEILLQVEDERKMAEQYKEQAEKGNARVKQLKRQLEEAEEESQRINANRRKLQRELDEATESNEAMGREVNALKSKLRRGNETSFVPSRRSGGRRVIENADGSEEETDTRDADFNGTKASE
Sequence of smooth muscle myosin (P60660 whole entry partner): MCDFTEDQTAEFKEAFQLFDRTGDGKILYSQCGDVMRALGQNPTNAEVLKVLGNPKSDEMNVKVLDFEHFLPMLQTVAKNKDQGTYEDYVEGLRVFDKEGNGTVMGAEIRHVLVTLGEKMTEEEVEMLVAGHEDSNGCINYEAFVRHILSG
Sequence of smooth muscle myosin (P24844 whole entry partner): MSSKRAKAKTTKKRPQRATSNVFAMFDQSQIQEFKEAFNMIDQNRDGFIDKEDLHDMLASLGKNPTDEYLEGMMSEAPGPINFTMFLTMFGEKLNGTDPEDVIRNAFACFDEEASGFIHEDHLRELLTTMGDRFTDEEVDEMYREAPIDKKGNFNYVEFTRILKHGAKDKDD

## CC(C)n1c(=O)cc(N[C@@H](C)c2ccccc2)[nH]c1=O [Compound 1, (S)-3-Isopropyl-6-((1-phenylethyl)amino) pyrimidine-2, 4(1H,3H)-dione]
[1]; 2 mg/day for 4 weeks, absence of a change in afterload
  LV filling pressure and diastolic peak mitral annular velocity: beneficial effects on LV filling pressure (↓E/e′ and NTpro-BNP) and in diastolic peak mitral annular velocity (e′)
[1]; [4]
  LV systolic function at rest and immediately post-exercise: not affected
  effect on LVOT rest and exercise gradients: consistent effect on LVOT rest and exercise gradients
[1]; 12 weeks of Compound 1, 4 weeks of washout (FIG. 21)
  NYHA functional class: improvement in NYHA functional class in individuals after 12 weeks and the reversal of improvement after 4 weeks of washout
[1]; Cohort B
  patients with >1.5 mL/kg/min improvement in pVO2: *5 of 10 patients had >1.5 mL/kg/mm improvement in pVO2
  patients with improved NYHA Class: 8 of 10 and **Improved NYHA Class in 9 out of 10 patients
[1]; Cohort B (2 mg/day), preliminary, mean ± SD, N 5, baseline 84 ± 76 (6)
  Resting Gradient Week 4: 59 ± 61 mm Hg
[1]; Cohort B (2 mg/day), preliminary, mean ± SD, N 6, baseline 3.9 ± 1.1 (6)
  Septal e′ Week 4: 4.5 ± 1.4
[1]; Cohort B (2 mg/day), preliminary, mean ± SD, N 6, baseline 4.7 ± 1.0 (6)
  Mean e′ Week 4: 5.7 ± 1.3
[1]; Cohort B (2 mg/day), preliminary, mean ± SD, N 6, baseline 5.4 ± 1.0 (6)
  Lateral e′ Week 4: 7.0 ± 1.2
[1]; Cohort B (2 mg/day), preliminary, mean ± SD, N 6, baseline 14.0 ± 3.4 (6)
  E/e′ Week 4: 10.7 ± 3.5
[1]; Cohort B (2 mg/day), preliminary, mean ± SD, N 6, baseline 70 ± 45 (6)
  Post-exercise Gradient Week 4: 93 ± 56 mm Hg
[1]; Cohort B (2 mg/day), preliminary, mean ± SD, N 6, baseline 71 ± 4 (6)
  Resting LVEF Week 4: 73 ± 6%
[1]; Cohort B (2 mg/day), preliminary, mean ± SD, N 6, baseline 73.3 ± 6.5 (6)
  Stroke Volume Week 4: 77.8 ± 14.3 mL
[1]; Cohort B (2 mg/day), preliminary, mean ± SD, N 6, baseline 78 ± 9 (5)
  Post-exercise LVEF Week 4: 76 ± 3%
[1]; Cohort B (2 mg/day), preliminary, mean ± SD, N 7, baseline 2162 ± 3601 (8)
  NT-pro BNP Week 4: 1258 ± 1789 pg/mL
[1]; Cohort B (2-5 mg daily doses)
  improvement in peak VO2 in 4 subjects: ≥ 2.9 mL/min/kg
[1]; [5]
  Dyspnea numerical rating (signed change): −3.0 ± 2.8
  NYHA Class (signed change): −1.0 ± 0.5
  Peak VO2 (signed change): +1.67 ± 2.3 mL/kg/min
  Post-exercise peak LVOT gradient (signed change): −25.0 ± 28.7 mmHg
  Resting LVEF (signed change): −5.5 ± 6.0%
  Resting LVOT gradient (signed change): −48.5 ± 48.0 mmHg
[1]; Cohort B, baseline to Week 12, n 9
  NT-proBNP Delta: −1195 ± 2770
[1]; [6]
  Dyspnea score Delta: −3.0 ± 2.8
  E/e′ Delta: −1.3 ± 4.6
  LA Vol (index) Delta: −6 ± 12 mL/m^2
  LVEDV Delta: 6 ± 18
  Lateral e′ Delta: 0.3 ± 2.2 cm/s
[1]; Cohort B, baseline 4.0 ± 2.6, n 10
  Dyspnea score Week 12: 1.0 ± 0.7
[1]; Cohort B, baseline 5.9 ± 1.0, n 10
  Lateral e′ Week 12: 6.1 ± 2.1 cm/s
[1]; Cohort B, baseline 13.9 ± 3.5, n 10
  E/e′ Week 12: 12.6 ± 4.1
[1]; Cohort B, baseline 41 ± 20, n 10
  LA Vol (index) Week 12: 35 ± 12 mL/m^2
[1]; Cohort B, baseline 95 ± 15, n 10
  LVEDV Week 12: 101 ± 25
[1]; Cohort B, baseline 1834 ± 3209, n 9
  NT-proBNP Week 12: 826 ± 1063
[1]; by week 12 (FIG. 23)
  peak VO2: improvement in peak VO2 by week 12
[1]; throughout the trial, improvement reversed after 4 weeks of washout (FIG. 22)
  dyspnea: rapid improvement in peak in dyspnea
Smooth muscle myosin
  activity against smooth muscle myosin: biochemically inactive
[2]; acute or chronic administration
  myocardial contractility, LV end-diastolic dimensions, blood pressure: decreased myocardial contractility and increased LV end-diastolic dimensions while preserving systemic arterial blood pressure and, LV end-diastolic pressure
[2]; versus acute effects of other negative inotropes
  end-diastolic pressures and end-diastolic stiffness: preserves end-diastolic pressures as well as the estimated (linear) end-diastolic stiffness despite marked increases in preload (EDV)
[3]; male, human, plasma, read-out: mean elimination half-life (converted)
  half-life: ~192 h
[3]
  pharmacokinetic (PK) profile: rapid absorption and subsequent distribution followed by a long elimination phase
